Assay results reported in ChEMBL document CHEMBL1944505, “Novel synthetic methods for N-cyano-1H-imidazole-4-carboxamides and their fungicidal activity” (Bioorg Med Chem Lett, 2012).
Converted amounts (≈) assume the structure as drawn. The source made the active and inactive calls. The rule behind the calls is not given here.

What was measured:
Colletotrichum = experiment: Antifungal activity against Colletotrichum gossypii at 50 ug/mL by agar plate method; assay type: functional
Rhizoctonia solani [1] = experiment: Antifungal activity against Rhizoctonia solani by agar plate method; assay type: functional, organism-based
[2] = Antifungal activity against Dothiorella gregaria at 50 ug/mL by agar plate method; assay type: functional
Botrytis = experiment: Antifungal activity against Botrytis […] at 50 ug/mL by agar plate method; assay type: functional
Fusarium oxysporum = experiment: Antifungal activity against Fusarium oxysporum at 50 ug/mL by agar plate method; assay type: functional, organism-based
Fusarium graminearum = experiment: Antifungal activity against Gibberella zeae at 50 ug/mL by agar plate method; assay type: functional, organism-based
Rhizoctonia solani [3] = experiment: Ratio of triadimefon EC50 to compound EC50 for Rhizoctonia solani; assay type: functional

Structure (SMILES)	Activity (Colletotrichum)	EC50 (Rhizoctonia solani [1])	Activity [2]	Activity (Botrytis)	Activity (Fusarium oxysporum)	Activity (Fusarium graminearum)	Ratio EC50 (Rhizoctonia solani [3])
COC(=O)c1ccccc1CN(C#N)C(=O)c1ncn(Cc2ccc(F)cc2)c1C	inactive	13.3 µg/mL (≈ 32.6 µM)	inactive	inactive	inactive	inactive	
CCCCn1cnc(C(=O)N(C#N)Cc2ccccc2F)c1C	inactive	13.3 µg/mL (≈ 42.2 µM)	inactive	inactive	inactive	inactive	
CCCCN(C#N)C(=O)c1ncn(CCCC)c1C	inactive	9.01 µg/mL (≈ 34.3 µM)	inactive	inactive	inactive	inactive	
Cc1ccc(Cn2cnc(C(=O)N(C#N)Cc3ccccc3F)c2C)cc1	inactive	8.76 µg/mL (≈ 24.2 µM)	inactive	inactive	inactive	inactive	
Cc1ccc(Cn2cnc(C(=O)N(C#N)Cc3ccc(F)cc3)c2C)cc1	inactive	3.04 µg/mL (≈ 8.39 µM)	inactive	inactive	inactive	inactive	
Cc1c(C(=O)N(C#N)Cc2ccc(F)cc2)ncn1Cc1ccc(F)cc1	inactive	20.8 µg/mL (≈ 56.8 µM)	inactive	inactive	inactive	inactive	
Cc1ccc(CN(C#N)C(=O)c2ncn(Cc3ccc(C)cc3)c2C)cc1	inactive	15.8 µg/mL (≈ 44.1 µM)	inactive	inactive	inactive	inactive	
Cc1ccc(Cn2cnc(C(=O)N(C#N)Cc3ccccc3Cl)c2C)cc1	inactive	3.53 µg/mL (≈ 9.32 µM)	inactive	inactive	inactive	inactive	
CCCCn1cnc(C(=O)N(C#N)Cc2ccccc2)c1C	inactive	7.98 µg/mL (≈ 26.9 µM)	inactive	inactive	inactive	inactive	
Cc1c(C(=O)N(C#N)Cc2ccc(F)cc2)ncn1Cc1cccc([N+](=O)[O-])c1	inactive	3.61 µg/mL (≈ 9.18 µM)	inactive	inactive	inactive	inactive	
Cc1c(C(=O)N(C#N)Cc2ccc(F)cc2F)ncn1Cc1ccc(F)cc1	inactive	2.63 µg/mL (≈ 6.84 µM)	inactive	inactive	inactive	inactive	5.6
Cc1c(C(=O)N(C#N)Cc2ccccc2F)ncn1Cc1cccc([N+](=O)[O-])c1	inactive	6.67 µg/mL (≈ 17 µM)	inactive	inactive	inactive	inactive	
Cc1ccc(Cn2cnc(C(=O)N(C#N)CCCc3ccccc3)c2C)cc1	inactive	4.64 µg/mL (≈ 12.5 µM)	inactive	inactive	inactive	inactive	
Cc1ccc(Cn2cnc(C(=O)N(C#N)Cc3ccccc3)c2C)cc1	inactive	3.04 µg/mL (≈ 8.83 µM)	inactive	inactive	inactive	inactive	
Cc1c(C(=O)N(C#N)Cc2ccccc2)ncn1Cc1ccccc1	inactive	7.74 µg/mL (≈ 23.4 µM)	inactive	inactive	inactive	inactive	
Cc1c(C(=O)N(C#N)Cc2ccccc2)ncn1Cc1ccc(F)cc1	inactive	31.3 µg/mL (≈ 89.9 µM)	inactive	inactive	inactive	inactive	
CC(C)(C)C(=O)C(Oc1ccc(Cl)cc1)n1cncn1 (stereo not drawn) [TRIADIMEFON]		14.7 µg/mL (≈ 50 µM)					
